From article PMC8498988, “Scaffold Hybridization Strategy Leads to the Discovery of Dopamine D3 Receptor-Selective or Multitarget Bitopic Ligands Potentially Useful for Central Nervous System Disorders” (ACS Chemical Neuroscience, 2021) come the findings set out here.

The target in assay [1] is T1, human 5-HT1AR (Homo sapiens, UniProt P08908).
T1 construct: expressed in transfected cells; host or cells: HeLa
T1 sequence (P08908 1-422): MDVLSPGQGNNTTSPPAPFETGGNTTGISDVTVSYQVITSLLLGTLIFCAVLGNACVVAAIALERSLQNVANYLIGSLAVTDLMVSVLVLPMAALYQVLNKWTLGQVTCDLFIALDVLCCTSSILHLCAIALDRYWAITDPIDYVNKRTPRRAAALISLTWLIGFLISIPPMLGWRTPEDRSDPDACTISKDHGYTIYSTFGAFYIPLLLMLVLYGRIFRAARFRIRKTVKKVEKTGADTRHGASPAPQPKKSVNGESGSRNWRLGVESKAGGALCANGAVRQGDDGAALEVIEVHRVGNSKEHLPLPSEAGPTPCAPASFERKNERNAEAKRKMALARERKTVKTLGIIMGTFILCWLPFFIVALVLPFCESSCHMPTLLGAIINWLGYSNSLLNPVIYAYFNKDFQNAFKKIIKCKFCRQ
Put plainly: Radioligand binding assay at human 5-HT1AR ([3H]8-OH-DPAT, HeLa cells). The note with it: HeLa cells expressing h5-HT1AR, read-out: Ki ± SEM, 5-HT1AR. As to the method:
A human cell line (HeLa) stably transfected with genomic clone G-21 coding for the human 5-HT1AR was used. Cells were grown as monolayers in Dulbecco’s modified Eagle’s medium supplemented with 10% fetal calf serum and gentamycin (100 μg/mL) under 5% CO2 at 37 °C. Cells were detached from the growth flask at 95% confluency by a cell scraper and were lysed in ice-cold Tris (5 mM) and EDTA buffer (5 mM, pH 7.4). Homogenates were centrifuged for 20 min at 40000g, and pellets were resuspended in a small volume of ice-cold Tris/EDTA buffer (above) and immediately frozen and stored at -70 °C until use. On the day of experiment, cell membranes (80–90 μg of protein) were resuspended in binding buffer (50 mM Tris, 2.5 mM MgCl2, and 10 mM pargyline, pH 7.4). Membranes were incubated in a final volume of 0.32 mL for 30 min at 30 °C with 1 nM [^3H]8-OH-DPAT in the absence or presence of various concentrations of competing drugs (1 pM to 1 μM); each experimental condition was performed in triplicate. Nonspecific binding was determined in the presence of 10 μM 5-HT.

Assay [2] addresses T1, human 5-HT1AR. The assay is described as follows: 5-HT1A [35S]GTPγS binding assay (HeLa cell membranes). It is filed as biochemical. The note with it: for EC50 / % stimul., 5-HT1A [35S]GTPγS binding: agonist mode; for % stimul., 5-HT1A [35S]GTPγS binding: standard agonist serotonin; for functional behavior at 5-HT1AR: in words. The procedure: The effects of the various compounds tested on [^35S]GTPγS binding in HeLa cells expressing the recombinant human 5-HT1AR were evaluated according to the method of Stanton and Beer with minor modifications. The stimulation experiments are as follows: Cell membranes (50–70 μg of protein) were resuspended in buffer containing 20 mM HEPES, 3 mM MgSO4, and 120 mM NaCl (pH 7.4). […] The samples were transferred to ice, [^35S]GTPγS (200 pM) was added, and the samples were incubated for further 30 min at 30 °C. The preincubation with both agonist and antagonist, before initiating the [^35S]GTPγS binding, ensures that agonist and antagonist are at equilibrium. Nonspecific binding was determined in the presence of […]. Incubation was stopped by the addition of ice-cold HEPES buffer and rapid filtration on Unifilter B filters (PerkinElmer) using a Filtermate cell harvester (Packard). The filters were washed with ice-cold Hepes buffer, and the radioactivity retained on the filters was determined by a TopCount, PerkinElmer liquid scintillation counter at 90% efficiency.
(GTPγS resists hydrolysis and so accumulates on activated G proteins.)

The target of assay [3] is 5-HT2AR (Homo sapiens, UniProt P28223). Put plainly: Radioligand binding assay at human 5-HT2AR ([125I]DOI, HEK cells). The note with it: HEK cells expressing h5-HT2AR, read-out: Ki ± SEM, 5-HT2AR. The arrangement: expressed in transfected cells; host or cells: HEK (HEK-h5HT2A). The procedure:
Human embryonic kidney cells expressing human 5HT2AR (HEK-h5HT2A) or human 5HT2CR (HEK-h5HT2C) are used. The cells are grown until confluent on 15 cm plates. The medium is removed, and the cells are washed with phosphate-buffered saline (PBS), scraped into 2 mL PBS, and frozen at −20 °C until needed. Cell suspension is thawed, 10 mL assay buffer (50 mM Tris, pH 7.4 at 37 °C, with 0.1% ascorbic acid and 5 mM CaCl2) is added per plate of cells, and polytronned at setting 6 for 5 s. The homogenate is centrifuged at 15,500 rpm for 20 min. To minimize the residual 5HT concentration, the pellet is resuspended in buffer, polytronned, and centrifuged as mentioned above. The final pellet is resuspended in 2 mL buffer/plate of cells. The binding assay includes 50 μL drug, 5-HT or buffer, 50 μL cell homogenate, 50 μL [^125I]DOI (∼0.1 nM), and buffer in a final volume of 250 μL. Specific binding is defined as the difference between total binding and binding in the presence of 10 μM 5HT. The reaction is incubated for 1 h at 37 °C and terminated by filtration through Wallac A filter mats presoaked in 0.05% polyethylenimine using a Tomtec 96-well harvester. The radioactivity remaining on filters is determined using a Wallac betaplate reader.

For assay [4], the target named is T2, 5-HT2CR (Homo sapiens, UniProt P28335).
T2 sequence (P28335 33-458): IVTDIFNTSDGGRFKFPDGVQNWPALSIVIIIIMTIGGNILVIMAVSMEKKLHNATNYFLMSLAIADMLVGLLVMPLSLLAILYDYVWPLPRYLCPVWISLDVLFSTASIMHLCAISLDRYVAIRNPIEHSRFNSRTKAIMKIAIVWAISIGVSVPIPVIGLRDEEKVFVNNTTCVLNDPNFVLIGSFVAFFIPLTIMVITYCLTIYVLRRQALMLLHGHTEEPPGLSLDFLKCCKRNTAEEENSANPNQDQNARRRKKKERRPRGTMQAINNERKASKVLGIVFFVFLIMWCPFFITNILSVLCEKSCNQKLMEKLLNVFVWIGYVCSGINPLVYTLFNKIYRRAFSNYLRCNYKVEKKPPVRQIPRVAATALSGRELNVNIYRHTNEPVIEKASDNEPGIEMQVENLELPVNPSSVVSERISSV
The assay is described as follows: 5-HT2C IP-1 formation (HEK-h5HT2C cells). The note with it: for % stimul., 5-HT2C IP-1 formation: agonist mode, normalized to the maximal stimulation by serotonin; for functional behavior at 5-HT2CR: in words.
Protocol: HEK-h5HT2A or HEK-h5HT2C cells are used as the tissue source. The day before the experiment, cells are plated in 24-well plates at a density of 400,000 cells per well using DMEM supplemented with charcoal-stripped FetalClone. Drugs are made up in stimulation buffer supplied in the kit. Medium is removed from the well, test compounds or serotonin or antagonist or buffer is added, and the cells are incubated for 1 h. The cells are lysed for 30 min, and 50 μL of cell lysate is added to the IP-1 plates. After the addition of appropriate antibodies, the plates are incubated for 3 h, washed six times, incubated with the substrate for 20 min, and, after termination of the reaction, the plate is read on a plate reader at 450 nm with a correction at 620 nm.

A word on the Ki: it is the dissociation constant of the complex between target and ligand, obtained from inhibition or displacement. As usually defined, the EC50 is the concentration needed to bring the measured effect to its halfway point. A higher EC50 goes with a less potent agent.

5-HT2AR, sequence (P28223 whole entry): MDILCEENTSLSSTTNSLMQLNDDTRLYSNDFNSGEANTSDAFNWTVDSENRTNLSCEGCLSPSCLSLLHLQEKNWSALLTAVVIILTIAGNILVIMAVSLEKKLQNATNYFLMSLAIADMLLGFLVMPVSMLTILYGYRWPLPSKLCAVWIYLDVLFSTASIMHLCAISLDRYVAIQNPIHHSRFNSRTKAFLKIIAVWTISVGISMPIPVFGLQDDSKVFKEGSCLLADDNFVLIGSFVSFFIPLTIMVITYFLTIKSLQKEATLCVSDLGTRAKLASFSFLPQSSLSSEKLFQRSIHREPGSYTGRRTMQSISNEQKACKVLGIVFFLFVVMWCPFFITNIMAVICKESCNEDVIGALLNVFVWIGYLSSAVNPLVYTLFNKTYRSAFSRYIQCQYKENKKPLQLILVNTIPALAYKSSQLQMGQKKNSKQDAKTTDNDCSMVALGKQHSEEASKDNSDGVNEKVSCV

`O=C(NCCCCN1CCN(c2cccc(Cl)c2Cl)CC1)C1COCC(c2ccccc2)(c2ccccc2)O1` (stereo not drawn) [compound 3, N-(4-(4-(2,3-Dichlorophenyl)piperazin-1-yl)butyl)-6,6-diphenyl-1,4-dioxane-2-carboxamide]: in assay [1], the Ki amounted to 288 ± 15 nM. Besides, in assay [2], the EC50 was 232 ± 19 nM; the “% stimul., 5-HT1A [35S]GTPγS binding” value is on record as 82.7%; the “functional behavior at 5-HT1AR” value is reported as 5-HT1AR full agonist. Also, the Ki in assay [3] stood at 257 ± 38 nM.
Turning to `O=C(NCCCCN1CCN(c2cccc(Cl)c2Cl)CC1)C1COC(c2ccccc2)(c2ccccc2)CO1` (stereo not drawn) [compound 6, N-(4-(4-(2,3-Dichlorophenyl)piperazin-1-yl)butyl)-5,5-diphenyl-1,4-dioxane-2-carboxamide], in assay [1], the Ki was 9.1 ± 0.97 nM. Moreover, in assay [2], a half-maximal effect (EC50) was put at 23.9 ± 8.8 nM; the “% stimul., 5-HT1A [35S]GTPγS binding” value was 90.8%; the “functional behavior at 5-HT1AR” value is “efficacious 5-HT1AR and D4R agonists with high potency”. In assay [4], the EC50 worked out at 380 ± 130 nM; the “% stimul., 5-HT2C IP-1 formation” value stood at 33%; the “functional behavior at 5-HT2CR” value was “D3R and 5-HT2CR partial agonists with high and low potency, respectively”. Further, the Ki in assay [3] worked out at 28 ± 6 nM.
Take `O=C(NCCCCN1CCN(c2cccc(Cl)c2Cl)CC1)C1COc2ccccc2O1` (stereo not drawn) [compound 9, N-(4-(4-(2,3-Dichlorophenyl)piperazin-1-yl)butyl)-2,3-dihydrobenzo[b][1,4]dioxine-2-carboxamide]: the Ki in assay [1] was determined as 23.8 ± 5.2 nM. In addition, in assay [2], it took 22.7 ± 0.82 nM to reach a half-maximal effect (EC50); the “% stimul., 5-HT1A [35S]GTPγS binding” value is 96.3%; the “functional behavior at 5-HT1AR” value is “efficacious 5-HT1AR and D4R agonists with high potency”. In addition, in assay [4], a half-maximal effect (EC50) was put at 750 ± 280 nM; the “% stimul., 5-HT2C IP-1 formation” value is on record as 37%; the “functional behavior at 5-HT2CR” value was “D3R and 5-HT2CR partial agonists with high and low potency, respectively”. The Ki in assay [3] was 62 ± 15 nM.
